US6914045B2, “Glycopeptide antibiotics” (Wyeth Holdings Corporation, priority 2001, dated 2005)

Experiments:
Staphylococcus sp. = experiment: in vitro antibacterial evaluation, MIC by broth dilution; format: cell-based; details: broth dilution, 18 hours at 35° C.; for MIC Staphylococcus aureus (ATCC 29213): strain ATCC 29213; for MIC Staphylococcus aureus (GC 1131): strain GC 1131; for MIC Staphylococcus aureus (GC 3051): strain GC 3051; for MIC Staphylococcus aureus (GC 3053): strain GC 3053; for MIC Staphylococcus aureus (GC 4541): strain GC 4541; for MIC Staphylococcus aureus (GC 4542): strain GC 4542; for MIC Staphylococcus aureus-SMITH (GC 4543): strain GC 4543; for MIC Staphylococcus aureus (GC 4544): strain GC 4544; for MIC Staphylococcus aureus (GC 4545): strain GC 4545; for MIC Staphylococcus haemolyticus (GC 4546): strain GC 4546; for MIC Coagulase Negative Staphylococcus (GC 4547): strain GC 4547; for MIC Coagulase Negative Staphylococcus (GC 4548): strain GC 4548; for MIC Coagulase Negative Staphylococcus (GC 4549): strain GC 4549; for MIC Coagulase Negative Staphylococcus (GC 4551): strain GC 4551; for MIC Coagulase Negative Staphylococcus (GC 6257): strain GC 6257
Method in brief: (§1)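 Broth dilution per NCCLS standard M7-A2 in Muller-Hinton II […], with an inoculum of 5×10^5 CFU/mL and antibiotic spanning 64-0.06 μg/mL. The MIC is the lowest concentration that inhibits growth of the organism.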

Enterococcus sp. = experiment: as above; format: cell-based; details: broth dilution, 18 hours at 35° C.
Method in brief: as §1

Streptococcus sp. = experiment: as above; format: cell-based; details: broth dilution, 18 hours at 35° C.
Method in brief: as §1

[1] = anatomic pathology (histopathology of heart and kidney) in mice; format: in vivo; details: CD-1 mice, 20 mg/kg intravenously daily for 9 days, necropsy day 10, microscopic histopathology
Experimental: Samples of tissues from necropsied mice were formalin-fixed, paraffin-embedded, sectioned, stained with hematoxylin and eosin, and examined microscopically. Histopathologic findings were recorded. These findings were subjectively graded on a scale corresponding to slight, mild, moderate, marked and severe as compared to untreated controls.

Escherichia coli = experiment: in vitro antibacterial evaluation, MIC by broth dilution; format: cell-based; details: 18 hours at 35° C.
Method in brief: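 Broth dilution in Muller-Hinton II medium per NCCLS standard M7-A2, with an inoculum of 5×10^5 CFU/mL and antibiotic tested over 64-0.06 μg/mL. MIC was taken as the lowest concentration inhibiting visible growth.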

CC(c1ccccc1)C1NC(=O)CNC(=O)C(CO)NC(=O)C(C(O)C2CN(Cc3ccccc3)C(=N)N2C2OC(CO)C(O)C(O)C2O)NC(=O)C(C(O)C2CNC(=N)N2)NC(=O)C(Cc2ccc(OC3OC(CO)C(OC4OC(CO)C(O)C(O)C4O)C(O)C3O)cc2)NC1=O (stereo not drawn) [Example 59, Cyclo[glycyl-β-methylphenylalanyl-O-(4-O-hexopyranosylhexopyranosyl)tyrosyl-(2-iminoimidazolidin-4-yl)seryl-3-[1-benzyl-3-hexopyranosyl-2-iminoimidazolidin-4-yl]serylseryl]]
0: Anatomical Pathology (Day 10), Heart [1] | Anatomical Pathology (Day 10), Kidney [1]
>128 µg/mL: MIC Staphylococcus aureus (ATCC 29213) (Staphylococcus sp.) | MIC Staphylococcus aureus (GC 1131) (Staphylococcus sp.) | MIC Staphylococcus aureus (GC 3051) (Staphylococcus sp.) | MIC Staphylococcus aureus (GC 3053) (Staphylococcus sp.) | MIC Staphylococcus aureus (GC 4541) (Staphylococcus sp.) | MIC Staphylococcus aureus (GC 4542) (Staphylococcus sp.) | MIC Staphylococcus aureus-SMITH (GC 4543) (Staphylococcus sp.) | MIC Staphylococcus aureus (GC 4544) (Staphylococcus sp.) | MIC Staphylococcus aureus (GC 4545) (Staphylococcus sp.) | MIC Staphylococcus haemolyticus (GC 4546) (Staphylococcus sp.) | MIC Coagulase Negative Staphylococcus (GC 4547) (Staphylococcus sp.) | MIC Coagulase Negative Staphylococcus (GC 4548) (Staphylococcus sp.) | MIC Coagulase Negative Staphylococcus (GC 4549) (Staphylococcus sp.) | MIC Coagulase Negative Staphylococcus (GC 4551) (Staphylococcus sp.) | MIC Coagulase Negative Staphylococcus (GC 6257) (Staphylococcus sp.) | MIC Enterococcus faecalis (ATCC 29212) (Enterococcus sp.; Enterococcus faecalis (ATCC 29212)) | MIC Enterococcus faecalis (GC 4552) (Enterococcus sp.; Enterococcus faecalis (GC 4552)) | MIC Enterococcus faecalis (GC 4553) (Enterococcus sp.; Enterococcus faecalis (GC 4553)) | MIC Enterococcus faecalis (GC 4554) (Enterococcus sp.; Enterococcus faecalis (GC 4554)) | MIC Enterococcus faecalis (GC 6189) (Enterococcus sp.; Enterococcus faecalis (GC 6189)) | MIC Enterococcus faecium (GC 2243) (Enterococcus sp.; Enterococcus faecium (GC 2243)) | MIC Enterococcus faecium (GC 4556) (Enterococcus sp.; Enterococcus faecium (GC 4556)) | MIC Enterococcus faecalis (ATCC 29212) (Enterococcus sp.) | MIC Enterococcus faecalis (GC 2242) (Enterococcus sp.) | MIC Enterococcus faecalis (GC 2691) (Enterococcus sp.) | MIC Enterococcus faecalis (GC 3059) (Enterococcus sp.) | MIC Enterococcus faecalis (GC 4552) (Enterococcus sp.) | MIC Enterococcus faecalis (GC 4553) (Enterococcus sp.) | MIC Enterococcus faecalis (GC 4554) (Enterococcus sp.) | MIC Enterococcus faecalis (GC 6189) (Enterococcus sp.) | MIC Enterococcus faecium (GC 2243) (Enterococcus sp.) | MIC Enterococcus faecium (GC 4556) (Enterococcus sp.) | MIC Enterococcus faecalis (GC 2242) (Enterococcus sp.; strain GC 2242) | MIC Enterococcus faecalis (GC 2691) (Enterococcus sp.; strain GC 2691) | MIC Enterococcus faecalis (GC 3059) (Enterococcus sp.; strain GC 3059) | MIC Streptococcus agalactiae (GC 4564) (Streptococcus sp.) | MIC Streptococcus pyogenes (GC 4563) (Streptococcus sp.) | MIC Streptococcus pyogenes (GC 4563) (Streptococcus sp.; strain GC 4563) | MIC Streptococcus agalactiae (GC 4564) (Streptococcus sp.; strain GC 4564) | MIC Escherichia coli (ATCC 25922) (Escherichia coli) | MIC Escherichia coli (GC 4559) (Escherichia coli) | MIC Escherichia coli (GC 4560) (Escherichia coli)
128 µg/mL: MIC Enterococcus avium (GC 4558) (Enterococcus sp.; Enterococcus avium (GC 4558)) | MIC Enterococcus faecium (GC 4557) (Enterococcus sp.; Enterococcus faecium (GC 4557)) | MIC Enterococcus avium (GC 4558) (Enterococcus sp.) | MIC Enterococcus faecium (GC 4557) (Enterococcus sp.) | MIC Streptococcus pneumoniae (ATCC 6301) (Streptococcus sp.) | MIC Streptococcus pneumoniae (GC 4565) (Streptococcus sp.) | MIC Streptococcus pneumoniae (ATCC 6301) (Streptococcus sp.; strain ATCC 6301) | MIC Streptococcus pneumoniae (GC 4565) (Streptococcus sp.; strain GC 4565)
64 µg/mL: MIC Streptococcus pneumoniae (GC 1894) (Streptococcus sp.) | MIC Streptococcus pneumoniae (GC 1894) (Streptococcus sp.; strain GC 1894)

CCCCCCCN1CC(C(O)C2NC(=O)C(C(O)C3CNC(=N)N3)NC(=O)C(Cc3ccc(OC4OC(CO)C(OC5OC(CO)C(O)C(O)C5O)C(O)C4O)cc3)NC(=O)C(C(C)c3ccccc3)NC(=O)CNC(=O)C(CO)NC2=O)N(C2OC(CO)C(O)C(O)C2O)C1=N (stereo not drawn) [Example 71, Cyclo[glycyl-β-methylphenylalanyl-O-(4-O-hexopyranosylhexopyranosyl)tyrosyl-3-(2-iminoimidazolidin-4-yl)seryl-3-[1-heptyl-3-hexopyranosyl-2-iminoimidazolidin-4-yl]serylseryl]]
0: Anatomical Pathology (Day 10), Heart [1] | Anatomical Pathology (Day 10), Kidney [1]
128 µg/mL: MIC Escherichia coli (GC 4560) (Escherichia coli)
>128 µg/mL: MIC Staphylococcus aureus (ATCC 29213) (Staphylococcus sp.) | MIC Staphylococcus aureus (GC 1131) (Staphylococcus sp.) | MIC Staphylococcus aureus (GC 3051) (Staphylococcus sp.) | MIC Staphylococcus aureus (GC 3053) (Staphylococcus sp.) | MIC Staphylococcus aureus (GC 4541) (Staphylococcus sp.) | MIC Staphylococcus aureus (GC 4542) (Staphylococcus sp.) | MIC Staphylococcus aureus-SMITH (GC 4543) (Staphylococcus sp.) | MIC Staphylococcus aureus (GC 4544) (Staphylococcus sp.) | MIC Staphylococcus aureus (GC 4545) (Staphylococcus sp.) | MIC Staphylococcus haemolyticus (GC 4546) (Staphylococcus sp.) | MIC Coagulase Negative Staphylococcus (GC 4547) (Staphylococcus sp.) | MIC Coagulase Negative Staphylococcus (GC 4548) (Staphylococcus sp.) | MIC Coagulase Negative Staphylococcus (GC 4549) (Staphylococcus sp.) | MIC Coagulase Negative Staphylococcus (GC 4551) (Staphylococcus sp.) | MIC Coagulase Negative Staphylococcus (GC 6257) (Staphylococcus sp.) | MIC Enterococcus avium (GC 4558) (Enterococcus sp.) | MIC Enterococcus faecalis (ATCC 29212) (Enterococcus sp.) | MIC Enterococcus faecalis (GC 2242) (Enterococcus sp.) | MIC Enterococcus faecalis (GC 2691) (Enterococcus sp.) | MIC Enterococcus faecalis (GC 3059) (Enterococcus sp.) | MIC Enterococcus faecalis (GC 4552) (Enterococcus sp.) | MIC Enterococcus faecalis (GC 4553) (Enterococcus sp.) | MIC Enterococcus faecalis (GC 4554) (Enterococcus sp.) | MIC Enterococcus faecalis (GC 6189) (Enterococcus sp.) | MIC Enterococcus faecium (GC 2243) (Enterococcus sp.) | MIC Enterococcus faecium (GC 4556) (Enterococcus sp.) | MIC Enterococcus faecium (GC 4557) (Enterococcus sp.) | MIC Streptococcus agalactiae (GC 4564) (Streptococcus sp.) | MIC Streptococcus pneumoniae (ATCC 6301) (Streptococcus sp.) | MIC Streptococcus pneumoniae (GC 1894) (Streptococcus sp.) | MIC Streptococcus pneumoniae (GC 4565) (Streptococcus sp.) | MIC Streptococcus pyogenes (GC 4563) (Streptococcus sp.) | MIC Escherichia coli (ATCC 25922) (Escherichia coli) | MIC Escherichia coli (GC 4559) (Escherichia coli)
